Measurements taken from patent US20240300943A1, “NOVEL SALTS OF HETEROCYCLIC COMPOUND AS PROTEIN KINASE INHIBITOR AND USES THEREOF” (HK INNO.N CORPORATION, priority 2021, published 2024).
One block for each molecule: values may come before it.

What was measured:
Format in all cases: physicochemical
[1] = Measurement of water solubility; conditions: saturated solution shaken at room temperature for 24 hours
Experimental: A liquid phase was taken out of the solution and filtered using a 0.22 μm PVDF filter. The filtered liquid phase was diluted 10-fold for LC analysis.
LC analysis was performed by the following method.

[2] = Physical stability evaluation under stress conditions
Experimental: In order to evaluate physical stability, samples were packaged in the form of ((LPDE+N2)+silica gel 1 g+LDPE)+Al-Bag, and stored under stress conditions (60° C.±2° C./80% RH±5%) for 2/4 weeks before evaluation.
In table 2, initial is a result measured after preparation of salts, and S2W and S4W are results measured after two and four weeks while being exposed to stress conditions, respectively.

[3] = Photostability evaluation
Excerpt: Samples were packaged in LPDE bag, and stored under visible (1.2M Lux-h), UV (200 W-h/m2) and UV+visible conditions, respectively, and then evaluated.

[4] = Hygroscopicity evaluation; conditions: for Individual related material: in %
Excerpt: Samples were placed in a glass desiccator in which relative humidity was adjusted to 33%, 53%, 75%, and 93%, and then stored for two and four weeks to be evaluated.

Water solubility [1]: 5900 µg/mL
C.I quantitative ([2]; Initial): 9.2%
Content (anhydride, as anhydride) ([2]; Initial): 97.9%
Moisture ([2]; Initial): 3.33%
Purity: Individual related material ([2]; Initial): 0.13%
Purity: Total related material ([2]; Initial): 0.66%
C.I quantitative ([2]; S2W: 2 weeks at 60° C./80% RH): 9.1%
Content (anhydride, as anhydride) ([2]; S2W: 2 weeks at 60° C./80% RH): 98.0%
Purity: Individual related material ([2]; S2W: 2 weeks at 60° C./80% RH): 0.13%
Purity: Total related material ([2]; S2W: 2 weeks at 60° C./80% RH): 1.08%
C.I quantitative ([2]; S4W: 4 weeks at 60° C./80% RH): 9.1%
Content (anhydride, as anhydride) ([2]; S4W: 4 weeks at 60° C./80% RH): 98.6%
Purity: Individual related material ([2]; S4W: 4 weeks at 60° C./80% RH): 0.34%
Purity: Total related material ([2]; S4W: 4 weeks at 60° C./80% RH): 1.28%
Individual related material ([3]; Initial): 0.13%
Total related material ([3]; Initial): 0.66%
Individual related material ([3]; Solid, Control): 0.11%
Total related material ([3]; Solid, Control): 0.55%
Individual related material ([3]; Solid, UV (200 W-h/m2)): 0.36%
Total related material ([3]; Solid, UV (200 W-h/m2)): 2.31%
Individual related material ([3]; Solid, UV + Vis): 0.81%
Total related material ([3]; Solid, UV + Vis): 4.74%
Individual related material ([3]; Solid, UV + Vis Control): 0.12%
Total related material ([3]; Solid, UV + Vis Control): 0.65%
Individual related material ([3]; Solid, Vis (1.2M Lux-h)): 0.66%
Total related material ([3]; Solid, Vis (1.2M Lux-h)): 3.83%
Total related material ([4]; Initial): 0.66%
Water ([4]; Initial): 3.33%
Individual related material ([4]; Initial): 0.13
Total related material ([4]; relative humidity 33%, 2 W): 0.68%
Water ([4]; relative humidity 33%, 2 W): 5.22%
Individual related material ([4]; relative humidity 33%, 2 W): 0.12
Total related material ([4]; relative humidity 33%, 4 W): 0.62%
Water ([4]; relative humidity 33%, 4 W): 5.32%
Individual related material ([4]; relative humidity 33%, 4 W): 0.11
Total related material ([4]; relative humidity 53%, 2 W): 0.78%
Water ([4]; relative humidity 53%, 2 W): 5.21%
Individual related material ([4]; relative humidity 53%, 2 W): 0.12
Total related material ([4]; relative humidity 53%, 4 W): 0.78%
Water ([4]; relative humidity 53%, 4 W): 5.38%
Individual related material ([4]; relative humidity 53%, 4 W): 0.12
Total related material ([4]; relative humidity 75%, 2 W): 0.69%
Water ([4]; relative humidity 75%, 2 W): 5.24%
Individual related material ([4]; relative humidity 75%, 2 W): 0.12
Total related material ([4]; relative humidity 75%, 4 W): 0.68%
Water ([4]; relative humidity 75%, 4 W): 5.41%
Individual related material ([4]; relative humidity 75%, 4 W): 0.11
Total related material ([4]; relative humidity 93%, 2 W): 0.89%
Water ([4]; relative humidity 93%, 2 W): 5.37%
Individual related material ([4]; relative humidity 93%, 2 W): 0.12
Total related material ([4]; relative humidity 93%, 4 W): 0.94%
Water ([4]; relative humidity 93%, 4 W): 5.43%
Individual related material ([4]; relative humidity 93%, 4 W): 0.13
Structure (SMILES): C[C@@H]1CN(C(=O)CC#N)CC=C1c1cc(NC(=O)C2CC2)nc2[nH]ccc12 [Example 1, (S)—N-(4-(1-(2-cyanoacetyl)-3-methyl-1,2,3,6-tetrahydropyridin-4-yl)-1H-pyrrolo[2,3-b]pyridin-6-yl)cyclopropanecarboxamide]

Water solubility [1]: 5900 µg/mL
C.I quantitative ([2]; Initial): 18.1%
Content (anhydride, as anhydride) ([2]; Initial): 100.7%
Moisture ([2]; Initial): 3.93%
Purity: Individual related material ([2]; Initial): 0.12%
Purity: Total related material ([2]; Initial): 0.56%
C.I quantitative ([2]; S2W: 2 weeks at 60° C./80% RH): 17.8%
Content (anhydride, as anhydride) ([2]; S2W: 2 weeks at 60° C./80% RH): 101.4%
Moisture ([2]; S2W: 2 weeks at 60° C./80% RH): 3.93%
Purity: Individual related material ([2]; S2W: 2 weeks at 60° C./80% RH): 0.11%
Purity: Total related material ([2]; S2W: 2 weeks at 60° C./80% RH): 0.63%
C.I quantitative ([2]; S4W: 4 weeks at 60° C./80% RH): 17.8%
Content (anhydride, as anhydride) ([2]; S4W: 4 weeks at 60° C./80% RH): 99.2%
Moisture ([2]; S4W: 4 weeks at 60° C./80% RH): 3.79%
Purity: Individual related material ([2]; S4W: 4 weeks at 60° C./80% RH): 0.14%
Purity: Total related material ([2]; S4W: 4 weeks at 60° C./80% RH): 0.58%
Individual related material ([3]; Initial): 0.12%
Total related material ([3]; Initial): 0.56%
Individual related material ([3]; Solid, Control): 0.11%
Total related material ([3]; Solid, Control): 0.44%
Individual related material ([3]; Solid, UV (200 W-h/m2)): 0.11%
Total related material ([3]; Solid, UV (200 W-h/m2)): 0.6%
Individual related material ([3]; Solid, UV + Vis): 0.12%
Total related material ([3]; Solid, UV + Vis): 0.91%
Individual related material ([3]; Solid, UV + Vis Control): 0.12%
Total related material ([3]; Solid, UV + Vis Control): 0.48%
Individual related material ([3]; Solid, Vis (1.2M Lux-h)): 0.11%
Total related material ([3]; Solid, Vis (1.2M Lux-h)): 0.69%
Total related material ([4]; Initial): 0.56%
Water ([4]; Initial): 3.93%
Individual related material ([4]; Initial): 0.12
Total related material ([4]; relative humidity 33%, 2 W): 0.53%
Water ([4]; relative humidity 33%, 2 W): 3.70%
Individual related material ([4]; relative humidity 33%, 2 W): 0.11
Total related material ([4]; relative humidity 33%, 4 W): 0.55%
Water ([4]; relative humidity 33%, 4 W): 3.94%
Individual related material ([4]; relative humidity 33%, 4 W): 0.10
Total related material ([4]; relative humidity 53%, 2 W): 0.66%
Water ([4]; relative humidity 53%, 2 W): 3.62%
Individual related material ([4]; relative humidity 53%, 2 W): 0.12
Total related material ([4]; relative humidity 53%, 4 W): 0.59%
Water ([4]; relative humidity 53%, 4 W): 3.96%
Individual related material ([4]; relative humidity 53%, 4 W): 0.11
Total related material ([4]; relative humidity 75%, 2 W): 0.58%
Water ([4]; relative humidity 75%, 2 W): 3.78%
Individual related material ([4]; relative humidity 75%, 2 W): 0.11
Total related material ([4]; relative humidity 75%, 4 W): 0.61%
Water ([4]; relative humidity 75%, 4 W): 3.93%
Individual related material ([4]; relative humidity 75%, 4 W): 0.11
Total related material ([4]; relative humidity 93%, 2 W): 0.54%
Water ([4]; relative humidity 93%, 2 W): 3.71%
Individual related material ([4]; relative humidity 93%, 2 W): 0.11
Total related material ([4]; relative humidity 93%, 4 W): 0.62%
Water ([4]; relative humidity 93%, 4 W): 3.94%
Individual related material ([4]; relative humidity 93%, 4 W): 0.10
Structure (SMILES): C[C@@H]1CN(C(=O)CC#N)CC=C1c1cc(NC(=O)C2CC2)nc2[nH]ccc12 [Example 2, (S)—N-(4-(1-(2-cyanoacetyl)-3-methyl-1,2,3,6-tetrahydropyridin-4-yl)-1H-pyrrolo[2,3-b]pyridin-6-yl)cyclopropanecarboxamide]
